Melting point data for 88 molecules are collected here from a melting point compilation (Tetko et al.; mined from patent text by program, amines drawn as free bases though some values may be those of a salt).

One may read the melting point as the temperature, or range, at which the solid turns liquid. As to `Cc1ccc2c(c1)N=C(N1CCN(C)CC1)c1cc(Br)cc3ccn-2c13`, the melting point lay within 153 to 155 °C.

For `NS(=O)(=O)c1cc(C(=O)O)cc(NCc2ccco2)c1-c1ccccc1`, the melting point was 167 to 169 °C.

`COC(=O)CCCCCNC(=O)/C=C/C=C/c1ccccc1[N+](=O)[O-]` displayed a melting point of 115 to 117 °C.

Molecule `CC(C)(C)c1ccc(Sc2cc(C(=O)O)ccc2C(=O)O)cc1` came in with a melting point of 325 to 326 °C.

In the case of `O=C(O)Cc1cn(Cc2ccc(OCc3ccccc3)cc2)nc1-c1ccc(F)cc1`, the melting point lay in the range of 194 to 195 °C.

As to `CN1CCN(C(=O)CCC(=O)c2ccc3[nH]c4nc(Cl)ccc4c3c2)CC1`, the melting point came to 236 °C.

Regarding `CCCCCCCCCCCCCCCCCCCCCCOC(=O)P(=O)(O)O`, the melting point lay within 92 to 93 °C.

`CCCc1ccccc1OCCCCCOc1coc(C=O)cc1=O` returned a melting point of 95 to 96 °C.

In the case of `N#Cc1ccc(N2CCC(N3CCCC3)CC2)cc1`, the melting point was in the range of 88 to 89 °C.

Turning to `O=C1c2c(O)cccc2C(SCC(O)CO)c2cccc(O)c21` (stereo not drawn), the melting point fell in the range of 154 to 155 °C.

`CSCC[C@H](NC(=O)c1cc(NC(Cn2ccnc2)c2ccc(F)cc2)ccc1Cc1ccc(F)cc1)C(=O)O` (stereo partly drawn) came in with a melting point of 130 to 135 °C.

Molecule `CC(C)(CO)Oc1ccc(COc2ccc(Cl)cc2)cc1` had a melting point of 67 to 70 °C.

Molecule `COC(=O)C=C(C)c1ccc(-c2ccc(F)cc2F)cc1` registered a melting point of 90 to 92 °C.

In the case of `CCCn1c(=O)c2[nH]c(-c3cc(C)n(CC(=O)Nc4cccc5ccccc45)n3)nc2n(CCC)c1=O`, the melting point is over 300 °C.

Take `CC(C)(C)NCC(O)COc1ccc2c(=O)cc(-c3ccc(O)c(O)c3)oc2c1` (stereo not drawn): the melting point amounted to 165 °C.

`Cn1nc(C(F)F)c(CS(=O)(=O)C2=NOC(C)(C)C2)c1Cl` returned a melting point of 78 to 79 °C.

Molecule `CCn1ncc2c(NCCc3ccccc3)c3ccccc3nc21` returned a melting point of 157 to 158 °C.

With `Cc1nc(CS(C)(=O)=O)nc(OC(=O)NN2CCOCC2)c1C`, the melting point stood at 147 °C.

On to `NC(=O)Nc1ncc(-c2ccncc2)cn1`, for which the melting point is over 250 °C.

Molecule `C[C@@H]1OCCN(c2cc(N3CCOCC3)nc(-n3c(C(F)F)nc4ccccc43)n2)[C@@H]1C` (relative stereo) returned a melting point of 167 to 169 °C.

`CN(c1n[nH]c2ncnc(Nc3cccc(Cl)c3)c12)C1CCCCC1` had a melting point of 188 to 190 °C.

`FC(F)(F)c1cccc(Sc2cc(Br)nc(Br)c2)c1` had a melting point of 68 to 70 °C.

`Cc1ccccc1-c1c(C(=O)O)c(=O)n(C)c2ccc(Cl)cc12` had a melting point of 202 to 203 °C.

For `CCN(CC)C(=O)COc1nc(-c2ccccc2)cc2ccccc12`, the melting point came out at 102 °C.

`NC(=O)c1nn(-c2ccc3c(c2)OCO3)c2c1CCc1ccc(NC(=O)c3cc(Cl)ncc3Cl)cc1-2` gave a melting point of 292 to 293 °C.

`Cn1c(=O)cc(C(F)(F)F)[nH]c1=O` came in with a melting point of 235 to 237 °C.

Take `CCOC(=O)C1=C(N(C)C)N=C(C)C(C(=O)OCC)C1c1ccccc1C#N` (stereo not drawn): the melting point worked out at 129 °C.

In the case of `c1cc(N2CCOCC2)ccn1`, the melting point was in the range of 93 to 95 °C.

Molecule `CC(c1oc2ccccc2c(=O)c1-c1cccc(F)c1)n1nc(-c2ccccc2CO)c2c(N)ncnc21` (stereo not drawn) showed a melting point of 185 to 189 °C.

Regarding `O=C(O)COc1ccc(F)cc1C(=O)NCc1ccc(Br)cc1F`, the melting point was in the range of 145 to 146 °C.

The molecule `O=C(O)c1ccc2c(c1)CCc1c(Cl)cccc1C2=O` came in with a melting point of 258 to 260 °C.

Consider `O=C(Cn1ccnc1)C12CC3CC(CC(C3)C1)C2`, for which the melting point was determined as 130 °C.

As to `COC(=O)c1c(O)ccn1C`, the melting point fell in the range of 44 to 46 °C.

Turning to `Cc1c(-c2ccccc2)[nH]c(=O)n1C1CCN(Cc2cccc(I)c2)CC1`, the melting point is 269 to 271 °C.

`CN(C(=O)N(C)n1cnc2ccccc2c1=O)c1ccc(Cl)cc1`: the melting point fell in the range of 97 to 120 °C.

Molecule `CC1(C)C(=O)C(c2cc(F)cc(F)c2)=C1c1ccc(S(C)(=O)=O)cc1` had a melting point of 113 to 114 °C.

`CCCc1nc(N)nc(N)c1N1CCNCC1`: the melting point lay in the range of 175 to 176 °C.

In the case of `COc1ccc(OC2c3cc(C#N)ccc3OC(C)(C)C2O)nn1` (stereo not drawn), the melting point fell in the range of 224 to 227 °C.

In turn, `O=C(NO)c1ccc(CNC(=O)c2[nH]c(-c3ccccc3)cc2-c2ccc(F)cc2)o1` gave a melting point of 152 to 153 °C.

As for `Cc1nnc(NC2CCCCC2)s1`, the melting point lay in the range of 192 to 194 °C.

In turn, `COc1ccc(CC(=O)O)cc1OCCCc1cn(-c2ccc(C(F)(F)F)cn2)nc1C1CCCCC1` registered a melting point of 117 to 118 °C.

`COCOc1cccc(F)c1C=NO` gave a melting point of 102 to 104 °C.

The molecule `NC(=O)CC(C(N)=O)(c1ccc(F)cc1)c1ccc(F)cc1` yielded a melting point of 192 to 193 °C.

As to `COC(=O)c1c(C)nc(C)c(C(=O)OCC2CCCO2)c1-c1ccccc1[N+](=O)[O-]` (stereo not drawn), the melting point was 69 to 70 °C.

As to `CNC(=O)C(=NOC)c1cccc(Cl)c1COc1ccc(Sc2ccc(C)cc2)cn1`, the melting point was 100 to 102 °C.

Turning to `CC(=O)c1ccc(S(=O)(=O)Nc2cc(C)on2)cc1`, the melting point was in the range of 189 to 190 °C.

`CCOC(=O)c1sc2cc(OCc3cccnc3)ccc2c1S(=O)(=O)c1ccccc1` returned a melting point of 120 to 122 °C.

As to `CC=Cc1cc(OC)cc2cc(-c3ccc(OC)cc3)oc12`, the melting point fell in the range of 116 to 118 °C.

As to `O=C(O)COc1c(-c2cccc(Cl)c2)cc(C(=O)NCCCCCCc2ccccc2)cc1-c1cccc(Cl)c1`, the melting point fell in the range of 178 to 181 °C.

The molecule `CCOC(=O)NNc1cc(-c2ccc(OC)cc2)c(-c2ccc(OC)cc2)nn1` displayed a melting point of 212 to 214 °C.

`CCCCCS(=O)(=O)NC(=O)CCc1ccc(OCCOCCOC)cc1Oc1ncc(C(F)(F)F)cc1Cl` yielded a melting point of 76 to 77.5 °C.

As for `CCCc1c(OCCCSc2nnc(SCC(=O)OCC)s2)ccc(C(C)=O)c1O`, the melting point lay in the range of 71 to 72.5 °C.

Take `CN(C)C(=O)C(C)(C)CCCCC(=O)CCCCC(C)(C)C(=O)O`: the melting point was in the range of 91.5 to 93.5 °C.

In the case of `Cn1nc(C=O)cc1C(C)(C)CNC(=O)c1ccccc1`, the melting point lay in the range of 150 to 151 °C.

`CC(CCC(=O)O)(c1ccc(OCc2ccc3ccccc3c2)cc1)c1ccc(OCc2ccc3ccccc3n2)cc1` (stereo not drawn) returned a melting point of 64 to 68 °C.

Take `Fc1ccc2[nH]cc(C3=CCN(CC4COc5ccc6ncncc6c5O4)CC3)c2c1` (stereo not drawn): the melting point was in the range of 233 to 235 °C.

For `CN1C(=O)C(F)ON=C(c2ccccc2)c2cc(Cl)ccc21` (stereo not drawn), the melting point fell in the range of 218 to 220 °C.

For `COCc1ccc(-c2csc(-c3ccncc3)n2)c(=O)[nH]1`, the melting point lay in the range of 249 to 254 °C.

As to `Cc1nc2cccc(Cl)c2n1-c1ccccc1`, the melting point fell in the range of 103 to 105 °C.

Turning to `COc1c(Cl)ccc(-c2cc(N)c(Cl)c(C(=O)NOCc3ccc(F)cc3)n2)c1F`, the melting point lay within 150 to 153 °C.

Molecule `O=S(=O)(CI)c1ncc(Cl)cn1` displayed a melting point of 152 °C.

`CCCCCCCCCCCC(=O)OCn1cc(F)c(=O)[nH]c1=O`: the melting point was 114 °C.

`COc1cc(-c2cccc(C)c2)cc2oc(=O)c(C)c(C)c12`: the melting point came to 114 °C.

The molecule `CCOC(=O)c1[nH]c2cc(Cl)cc(Cl)c2c1NCC(=O)c1ccccc1` displayed a melting point of 143 to 144 °C.

For the molecule `N#Cc1c(Cl)[nH]c2cccnc12`, the melting point is over 250 °C.

On to `NC(=O)Cc1ccc2c(c1)CCc1cccnc1O2`, for which the melting point lay within 164 to 165 °C.

With `NCCC1Cc2ccc(C3=NNC(=O)CC3)cc2C1` (stereo not drawn), the melting point was 189 to 190 °C.

In turn, `O=C(O)/C(=C\c1cc(-c2ccc3c(c2)OCO3)n(-c2cc(Cl)ccc2Cl)n1)c1cccc(Cl)c1` came in with a melting point of 174 °C.

`Cc1cccc(SCn2cc(Br)cnc2=O)c1` returned a melting point of 164 °C.

On to `O=C(O)c1ccc(O)c(Cl)c1Cl`, for which the melting point is 200 °C.

The molecule `Cc1nc(-c2ccc3c(c2)OCC32C(=O)N(Cc3ccccn3)c3ccccc32)no1` (stereo not drawn) returned a melting point of 147 to 148 °C.

With `O=C(OCC1OC(n2cc(F)c(=O)[nH]c2=O)C(O)C1O)C1CCCN1C(=O)OCc1ccccc1` (stereo not drawn), the melting point was in the range of 137 to 144 °C.

Turning to `Nc1cn(-c2cncc(F)c2)nc1Cl`, the melting point was 149 to 151 °C.

Molecule `CN(C)C(=O)c1ccc(C=CC(=O)c2cccc(OCc3ccc4ccc(Cl)cc4n3)c2)o1` yielded a melting point of 141 to 142 °C.

With `CCc1nc2c(C)cc(C)nc2n1Cc1ccc(C(c2ccccc2)C(Br)C(=O)O)cc1` (stereo not drawn), the melting point lay within 117 to 126 °C.

`Cc1cc2c3c(c1)C1(CC(=O)NC1=O)C(=O)N3CCC2` (stereo not drawn) registered a melting point of 165 to 167 °C.

Turning to `CCOc1ccc2[nH]c(C(=O)O)cc2c1`, the melting point turned out to be 180 °C.

Molecule `O=C(NCc1cccs1)n1cc(F)c(=O)[nH]c1=O` returned a melting point of 131 to 132 °C.

For the molecule `O=C(Nc1ccc2cc(CN3CCCC3)cnc2c1)c1ccc(-c2ccc(Cl)cc2)nc1`, the melting point was in the range of 223 to 225 °C.

Regarding `Cc1ccc(-c2ccc(C(=O)N3Cc4cccn4Cc4ccccc43)cc2)c2ccccc12`, the melting point lay in the range of 160 to 162 °C.

On to `CCOC(=O)C1=C(CCC(OC(=O)c2ccc([N+](=O)[O-])cc2)c2ccccc2)NC(C)=C(C(=O)OC)C1c1cccc([N+](=O)[O-])c1` (stereo not drawn), for which the melting point is 75 to 90 °C.

For the molecule `CCOc1ccc(-c2ccc(C3(O)CN4CCC3CC4)cc2)cc1` (stereo not drawn), the melting point was in the range of 199 to 200 °C.

The molecule `CC(=O)N1c2ccccc2CCc2ccc(C(=O)O)cc21` gave a melting point of 189 to 190 °C.

Regarding `CCC(=O)c1ccc2cc(OC(C)C)ccc2c1`, the melting point fell in the range of 79 to 80 °C.

In turn, `CC[C@H](C)C(OCc1ccccc1)[C@H]1[C@H]([N+](=O)[O-])[C@@H](c2cccs2)N[C@@H]1C(=O)NCCC(=O)O` (stereo partly drawn) returned a melting point of 79 to 80 °C.

`O=C1c2cc(Cl)ccc2C(O)N1c1ccc2ccc(Cl)nc2n1` (stereo not drawn) returned a melting point of 295 to 297 °C.

In turn, `CCc1nc2c(N)nc3cc(OCc4cccc(Cl)n4)ccc3c2s1` displayed a melting point of 229 to 230 °C.

As for `CN(C)c1ccc(-c2nc(Cl)c(C#N)n2Cc2ccccc2)cc1`, the melting point was in the range of 125 to 127 °C.
